Source: ChEMBL document CHEMBL1130932, “Hepatoprotective and nitric oxide production inhibitory activities of coumarin and polyacetylene constituents from the roots of Angelica furcijuga” (Bioorg Med Chem Lett, 1998)

How the values were obtained:
Assay type in all cases: functional
Rattus norvegicus [1] = species: Rattus norvegicus; experiment: Inhibitory activity against D-GalN-induced cytotoxicity in rat hepatocytes at 100 uM; details: Hepatocyte
Rattus norvegicus [2] = species: Rattus norvegicus; experiment: Inhibitory activity against D-GalN-induced cytotoxicity in rat hepatocytes; details: Hepatocyte
Mus musculus [3] = species: Mus musculus; experiment: Inhibitory activity against LPS-induced NO production in mouse peritoneal macrophages was evaluated
Mus musculus [4] = species: Mus musculus; experiment: Inhibitory activity from the roots of Angelica furcijuga on LPS-induced NO production in mouse peritoneal macrophages was evaluated at 100 uM
Mus musculus [5] = species: Mus musculus; experiment: Inhibitory activity against LPS-induced NO production in mouse peritoneal macrophages was evaluated at 100 uM

IC50 (Mus musculus [3]) | SMILES | inhibition at 100 µM (Rattus norvegicus [1]) | IC50 (Rattus norvegicus [2]) | inhibition at 100 µM (Mus musculus [4]) | inhibition at 100 µM (Mus musculus [5]) | Inhibition (Mus musculus [3])
8.8 µM | C/C=C(\C)C(=O)O[C@@H]1[C@H](OC(=O)C(C)C)c2c(ccc3ccc(=O)oc23)OC1(C)C | 10% | > 100 µM |  |  | 
> 100 µM | O=c1ccc2ccc(O[C@@H]3O[C@H](COC4OC[C@](O)(CO)[C@H]4O)[C@@H](O)[C@H](O)[C@H]3O)cc2o1 (stereo partly drawn) | -2.1% | > 100 µM | 36% |  | 
53 µM | CC(=O)O[C@@H]1c2c(ccc3ccc(=O)oc23)OC(C)(C)[C@@H]1OC(=O)C1(C)OC1C (stereo partly drawn) |  | 29 µM |  |  | 
5.1 µM | C/C=C(\C)C(=O)O[C@@H]1[C@H](OC(=O)C(C)CC)c2c(ccc3ccc(=O)oc23)OC1(C)C (stereo partly drawn) | -0.5% | > 100 µM |  |  | 
8.2 µM | CCC(C)C(=O)O[C@@H]1c2c(ccc3ccc(=O)oc23)OC(C)(C)[C@@H]1OC(C)=O (stereo partly drawn) | -2.5% | > 100 µM |  |  | 
11 µM | CC(=O)O[C@@H]1[C@H](OC(=O)CC(C)C)c2c(ccc3ccc(=O)oc23)OC1(C)C [SUKSDORFIN] | -3.4% | > 100 µM |  |  | 
> 100 µM | CC(C)(O)C1Cc2cc(CCC(=O)O)c(O[C@@H]3O[C@H](CO)[C@@H](O)[C@H](O)[C@H]3O)cc2O1 (stereo partly drawn) | 0.6% | > 100 µM | 32% |  | 
> 100 µM | CC(C)(O)[C@H](O)Cc1cc2ccc(=O)oc2cc1O[C@@H]1O[C@H](CO)[C@@H](O)[C@H](O)[C@H]1O | 5.8% | > 100 µM | 49% |  | 
4.2 µM | CC(=O)O[C@@H]1[C@H](OC(=O)C(C)C)c2c(ccc3ccc(=O)oc23)OC1(C)C [SERAVSHANIN] | -2.2% | > 100 µM |  |  | 
3.4 µM | C/C=C(\C)C(=O)O[C@@H]1c2c(ccc3ccc(=O)oc23)OC(C)(C)[C@@H]1OC(=O)/C(C)=C/C | 2.8% | > 100 µM |  |  | 
> 100 µM | CC1(C)Oc2ccc3ccc(=O)oc3c2[C@H](O)[C@H]1O | 1.5% | > 100 µM |  | 36% | 
> 100 µM | CC1(C)Oc2ccc3ccc(=O)oc3c2C[C@H]1O[C@@H]1O[C@H](CO)[C@@H](O)[C@H](O)[C@H]1O | 1.4% | > 100 µM | 21% |  | 
20 µM | C/C=C(\C)C(=O)O[C@@H]1c2c(ccc3ccc(=O)oc23)OC(C)(C)[C@@H]1OC(C)=O [PTERYXIN] | 4.4% | > 100 µM |  |  | 
91 µM | CC1(C)Oc2ccc3ccc(=O)oc3c2[C@@H](O)[C@H]1O | 6.5% | > 100 µM |  |  | 
> 100 µM | COc1cc(C(O)C(CO)Oc2ccc(/C=C/CO[C@@H]3O[C@H](CO)[C@@H](O)[C@H](O)[C@H]3O)cc2OC)ccc1O (stereo partly drawn) | -0.2% | > 100 µM |  |  | -26%
8.8 µM | C/C=C(\C)C(=O)O[C@@H]1[C@H](OC(C)=O)c2c(ccc3ccc(=O)oc23)OC1(C)C | 13% | > 100 µM |  |  | 

SMILES | IC50 (Mus musculus [3]) | inhibition at 100 µM (Rattus norvegicus [1]) | IC50 (Rattus norvegicus [2]) | inhibition at 100 µM (Mus musculus [4]) | inhibition at 100 µM (Mus musculus [5]) | Inhibition (Mus musculus [3])
C=C[C@@H](O)C#CC#CC/C=C\CCCCCCC | 4.8 µM | -0.6% | > 100 µM |  |  | 
C=C[C@@H](O)C#CC#C[C@@H](O)/C=C\CCCCCCC [FALCARINDIOL] | 4.4 µM | -33% | > 100 µM |  |  | 
COc1c2ccoc2cc2oc(=O)ccc12 [BERGAPTEN] | > 100 µM | 23% | > 100 µM | 49% |  | 
